Experimental data taken from patent US11306063B2, “Heterocyclic naphthoquinones derivatives for use in the treatment of cancers including Cushing disease” (Commissariat a l'Energie Atomique et aux Energies …, priority 2016, dated 2022).
Like-named read-outs stand apart in the source and are kept apart here.

Experiments:
MESSA DX5 cells = assay: Cytotoxicity assay (PrestoBlue cell viability), MESSA DX5; format: cell-based, human; settings: Homo sapiens, MES-SA/Dx5; 48 hours treatment; chemoresistant line
Experimental: (§1) Messa, Messa DX5, HCT116, HEK-293, PC-3, LNCaP, HCC827 and H1975 cell lines are issued from the American Type Culture Collection (ATCC).
(§2) Messa, Messa DX5 and HCT116 were maintained in McCoy's supplemented with 10% fetal bovine serum, and 1% penicillin/streptomycin. PC-3, LNCaP cells were maintained in RPMI medium supplemented with 10% fetal bovine serum, and 1% penicilin/streptomycin and in the case of Messa DX5: 500 nM Doxorubicin was added to maintain selection pressure. HEK293 were maintained in DMEM medium supplemented with 10% fetal bovine serum, and 1% penicillin/streptomycin. Cells were maintained at 37° C. with 5% CO2, 95% air, and humid atmosphere. In the case of hormonal dependent LNCaP cells, 2 μM DiHydroTestosterone (DHT) was added or not—depending on the type of biological assay—for the same incubation period as compounds.
(§3) For cytotoxicity assays, cells were seeded in 96-well microplates 24 hours before the addition of increasing concentrations of each compound in the culture medium. Cell viability was analyzed 48 hours following addition of each compound through the monitoring of mitochondrial […] activity using PrestoBlue® Cell Viability Reagent (Invitrogen; #A-13261). Paclitaxel was used as a control which is cytotoxic on various cancerous cells although not on chemoresistant MESSA DX5 lineage.

MESSA cells = assay: Cytotoxicity assay (PrestoBlue cell viability), MESSA; format: cell-based; settings: Homo sapiens, MES-SA; 48 hours treatment; concentration inducing 50% cell mortality
Experimental: as §1, §2, §3

H1975 cells = assay: Cytotoxicity assay (PrestoBlue cell viability), H1975; format: cell-based, human; settings: Homo sapiens, NCI-H1975, 48 h
Experimental: as §1, §3

HEK293 cells = assay: Cytotoxicity assay (PrestoBlue cell viability), HEK293; format: cell-based; settings: Homo sapiens, 48 hours treatment
Experimental: as §1, §2, §3

[1] = biological target: T1, USP2^CD (purified catalytic domain of USP2) (Homo sapiens, UniProt O75604); assay: Inhibition of purified USP2^CD enzymatic activity (Ub-AMC or Ub-Rho substrate); format: biochemical; settings: for inhibition at 0.01 µM: 0.01 μM compound; for inhibition at 0.05 µM: 0.05 μM compound; for inhibition at 0.1 µM: 0.1 μM compound; for inhibition at 0.5 µM: 0.5 μM compound; for inhibition at 1 µM: 1 μM compound; for inhibition at 5 µM: 5 μM compound; for inhibition at 10 µM: 10 μM compound; for inhibition at 25 µM: 25 μM compound; for inhibition at 50 µM: 50 μM compound; for IC50: read-out: IC50 USP2 CD
T1 construct: The purified catalytic domain of USP2 (USP2^CD, in-house purified); His; made in house; host or cells: E. coli BL21 Gold
T1 sequence (O75604 267-599 limits assumed): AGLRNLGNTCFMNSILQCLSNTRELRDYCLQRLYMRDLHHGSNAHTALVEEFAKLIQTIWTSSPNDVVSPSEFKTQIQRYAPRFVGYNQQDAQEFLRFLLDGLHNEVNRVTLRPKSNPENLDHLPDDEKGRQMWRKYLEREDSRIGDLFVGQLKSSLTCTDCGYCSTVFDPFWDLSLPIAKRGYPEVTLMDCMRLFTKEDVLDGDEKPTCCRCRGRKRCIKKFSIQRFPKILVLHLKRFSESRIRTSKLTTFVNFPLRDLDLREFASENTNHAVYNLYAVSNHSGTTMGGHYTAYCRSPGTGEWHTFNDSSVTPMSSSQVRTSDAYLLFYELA
Summary of the method: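 His-tagged catalytic domain expressed in E. coli and Ni/gel-filtration purified; assayed in 50 mM HEPES pH 7.6 or 40 mM Tris pH 7.4 with 1 mM DTT. Compound added just before Ub-AMC or Ub-Rho substrate; fluorescence from hydrolysis followed over 20 or 30 min, median of duplicates.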

[2] = biological target: T2, USP8^CD (purified catalytic domain of USP8) (Homo sapiens, UniProt P40818); assay: Inhibition of purified USP8^CD enzymatic activity (Ub-AMC or Ub-Rho substrate); format: biochemical; settings: for inhibition at 0.01 µM: 0.01 μM compound; for inhibition at 0.05 µM: 0.05 μM compound; for inhibition at 0.1 µM: 0.1 μM compound; for inhibition at 0.5 µM: 0.5 μM compound; for inhibition at 1 µM: 1 μM compound; for inhibition at 5 µM: 5 μM compound; for inhibition at 10 µM: 10 μM compound; for inhibition at 25 µM: 25 μM compound; for inhibition at 50 µM: 50 μM compound; for IC50: read-out: IC50 USP8 CD
T2 construct: the purified catalytic domain of USP8 (USP8^CD, in-house purified); made in house; host or cells: E. coli BL21 Gold
T2 sequence (P40818 777-1109 limits assumed): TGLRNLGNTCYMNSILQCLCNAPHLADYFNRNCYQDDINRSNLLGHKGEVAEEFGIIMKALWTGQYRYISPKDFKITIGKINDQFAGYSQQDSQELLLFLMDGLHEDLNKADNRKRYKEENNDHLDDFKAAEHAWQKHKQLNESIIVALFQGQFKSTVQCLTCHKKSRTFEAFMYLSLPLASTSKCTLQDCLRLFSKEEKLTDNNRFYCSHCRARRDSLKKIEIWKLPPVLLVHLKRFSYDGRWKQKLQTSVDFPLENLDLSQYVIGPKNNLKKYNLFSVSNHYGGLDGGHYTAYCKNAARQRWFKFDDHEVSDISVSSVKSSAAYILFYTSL
Summary of the method: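 His-tagged catalytic domain expressed in E. coli and purified by Ni affinity and gel filtration. Assayed in 50 mM HEPES pH 7.6 or 40 mM Tris pH 7.4 buffer with 1 mM DTT; compound added just before Ub-AMC or Ub-Rho substrate, fluorescence kinetics followed 20 or 30 min. Median of duplicates.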

LNCaP cells = assay: Cytotoxicity assay (PrestoBlue cell viability), LNCaP; format: cell-based; settings: Homo sapiens, 48 hours treatment
Experimental: as §1, §2, §3

PC-3 cells = assay: Cytotoxicity assay (PrestoBlue cell viability), PC-3; format: cell-based; settings: Homo sapiens, 48 hours treatment
Experimental: as §1, §2, §3

[3] = Ub-AMC substrate at 1 μM, Table 2b
[4] = Ub-Rhodamine substrate at 0.1 μM, Table 2c

| Compound | EC50 (MESSA DX5 cells) | EC50 (MESSA cells) | EC50 (H1975 cells) | EC50 (HEK293 cells) | inhibition at 0.01 µM ([1]; Table 1c) | inhibition at 0.05 µM ([1]; Table 1c) | inhibition at 0.1 µM ([1]; Table 1c) | inhibition at 0.5 µM ([1]; Table 1c) | inhibition at 1 µM ([1]; Table 1b) | inhibition at 1 µM ([1]; Table 1c) | inhibition at 5 µM ([1]; Table 1c) | inhibition at 10 µM ([1]; Table 1c) | inhibition at 25 µM ([1]; Table 1b) | inhibition at 50 µM ([1]; Table 1b) | IC50 [1, 3] | inhibition at 0.01 µM ([2]; Table 1d) | inhibition at 0.05 µM ([2]; Table 1d) | inhibition at 0.1 µM ([2]; Table 1d) | inhibition at 0.5 µM ([2]; Table 1d) | inhibition at 1 µM ([2]; Table 1b) | further results |
| --- | --- | --- | --- | --- | --- | --- | --- | --- | --- | --- | --- | --- | --- | --- | --- | --- | --- | --- | --- | --- | --- |
| COc1ccc(S(=O)(=O)Cc2nc3c(nc2CS(=O)(=O)c2ccc(OC)c(OC)c2)C(=O)c2ccccc2C3=O)cc1OC [OVM18] | 2500 nM | 1300 nM | > 3000 nM | 2500 nM | -19% | -3% | 19% | -20% | 53% | 44% | 17% | 9% | 53% | 63% | > 10000 nM | 2% | 21% | -8% | 63% | 100% | inhibition at 1 µM ([2]; Table 1d): 83%; inhibition at 5 µM ([2]; Table 1b): 103%; inhibition at 5 µM ([2]; Table 1d): 77%; inhibition at 10 µM ([2]; Table 1d): 71%; inhibition at 25 µM ([2]; Table 1b): 96%; inhibition at 50 µM ([2]; Table 1b): 101%; IC50 [2, 3]: 500 nM; EC50 (LNCaP cells): 2100 nM; EC50 (PC-3 cells): 3000 nM |
| CCS(=O)(=O)Cc1nc2c(nc1CS(=O)(=O)CC)C(=O)c1ccccc1C2=O [VIN6075] | > 3000 nM | 3000 nM | > 3000 nM | > 3000 nM | 11% | 6% | -26% | 2% | 51% | 31% | 51% | 57% | 99% | 100% | 5000 nM | -15% | 24% | 12% | 51% | 85% | inhibition at 5 µM ([1]; Table 1b): 75%; IC50 [1, 4]: 600 nM; inhibition at 1 µM ([2]; Table 1d): 86%; inhibition at 5 µM ([2]; Table 1b): 102%; inhibition at 5 µM ([2]; Table 1d): 104%; inhibition at 10 µM ([2]; Table 1d): 110%; inhibition at 25 µM ([2]; Table 1b): 104%; inhibition at 50 µM ([2]; Table 1b): 106%; IC50 [2, 3]: 500 nM; IC50 [2, 4]: 80 nM; EC50 (LNCaP cells): 2800 nM; EC50 (PC-3 cells): 3000 nM |
